In ChEMBL document CHEMBL1201862, “PubChem BioAssay data set” (2004):
Active and inactive are the calls of the source.

What was measured:
[1] = molecular target: T1, Oxysterols receptor LXR-beta (Homo sapiens, UniProt P55055); test: LXR agonists, Gal4 luciferase reporter, dose response, counter-screen for ssDAF-12 agonist project, cell-based, luminescence, HEK293, S. stercoralis campaign (AID 720737); format: functional; conditions: read-out: IC50 (the source's name)
T1 sequence (P55055 whole entry): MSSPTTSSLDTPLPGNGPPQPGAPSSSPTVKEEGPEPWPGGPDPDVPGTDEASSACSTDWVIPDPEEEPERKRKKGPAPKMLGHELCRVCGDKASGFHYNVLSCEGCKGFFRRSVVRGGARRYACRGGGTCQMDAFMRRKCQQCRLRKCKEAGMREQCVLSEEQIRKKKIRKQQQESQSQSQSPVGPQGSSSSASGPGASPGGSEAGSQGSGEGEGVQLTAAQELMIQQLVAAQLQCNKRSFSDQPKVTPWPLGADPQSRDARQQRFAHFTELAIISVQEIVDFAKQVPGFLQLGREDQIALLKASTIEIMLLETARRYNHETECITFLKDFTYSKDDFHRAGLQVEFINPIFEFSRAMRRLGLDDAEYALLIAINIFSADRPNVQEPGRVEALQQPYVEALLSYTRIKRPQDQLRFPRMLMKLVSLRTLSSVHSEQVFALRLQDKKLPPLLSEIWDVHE

Streptococcus = test: GAS UMAA2166 growth inhibition – luminescence, BacTiterGlo, counter-screen for streptokinase expression inhibitor project, dose response (AID 1915); format: functional, organism-based;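 further: potency for reduction of bacterial viability or growth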
[2] = tested on: Streptococcus sp. 'group A'; test: Streptococcus pyogenes SK(-)GAS viability under kanamycin – luminescence, BacTiterGlo, confirmation, counter-screen for streptokinase expression inhibitor project, dose response (AID 1900); format: functional, organism-based
[3] = Luminescence-based cell-based high throughput dose response assay to identify activators of the DAF-12 from the parasite S. stercoralis (ssDAF-12).; format: functional
Streptokinase A = molecular target: T2, Streptokinase A (Streptococcus pyogenes serotype M1, UniProt P10520); test: viability-normalized secreted streptokinase activity reduction – plasminogen activation absorbance, OD405, dose response (AID 1914); format: functional, Streptococcus pyogenes M1 GAS;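 further: secreted streptokinase activity via plasminogen activation per viability signal from cell pellet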
T2 sequence (P10520 whole entry): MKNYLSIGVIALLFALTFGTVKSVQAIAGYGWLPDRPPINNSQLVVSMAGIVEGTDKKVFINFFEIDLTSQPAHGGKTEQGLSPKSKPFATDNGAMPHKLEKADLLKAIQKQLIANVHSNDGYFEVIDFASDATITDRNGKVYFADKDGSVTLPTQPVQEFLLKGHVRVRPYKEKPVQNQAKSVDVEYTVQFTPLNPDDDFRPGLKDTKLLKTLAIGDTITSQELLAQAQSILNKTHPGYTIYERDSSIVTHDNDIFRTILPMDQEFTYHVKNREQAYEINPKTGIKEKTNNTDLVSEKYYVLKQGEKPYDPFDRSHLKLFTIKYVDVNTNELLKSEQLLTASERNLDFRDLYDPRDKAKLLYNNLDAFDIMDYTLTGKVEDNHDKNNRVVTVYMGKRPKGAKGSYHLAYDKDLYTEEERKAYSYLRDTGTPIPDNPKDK

[4] = molecular target: T3, Adenosylmethionine-8-amino-7-oxononanoate aminotransferase (Mycobacterium tuberculosis, UniProt P9WQ81); test: Mycobacterium tuberculosis BioA enzyme inhibitor Measured in Biochemical System Using Plate Reader - 2163-02_Inhibitor_Dose_CherryPick_Activity.; format: functional, Mycobacterium tuberculosis UT205
T3 sequence (P9WQ81 whole entry): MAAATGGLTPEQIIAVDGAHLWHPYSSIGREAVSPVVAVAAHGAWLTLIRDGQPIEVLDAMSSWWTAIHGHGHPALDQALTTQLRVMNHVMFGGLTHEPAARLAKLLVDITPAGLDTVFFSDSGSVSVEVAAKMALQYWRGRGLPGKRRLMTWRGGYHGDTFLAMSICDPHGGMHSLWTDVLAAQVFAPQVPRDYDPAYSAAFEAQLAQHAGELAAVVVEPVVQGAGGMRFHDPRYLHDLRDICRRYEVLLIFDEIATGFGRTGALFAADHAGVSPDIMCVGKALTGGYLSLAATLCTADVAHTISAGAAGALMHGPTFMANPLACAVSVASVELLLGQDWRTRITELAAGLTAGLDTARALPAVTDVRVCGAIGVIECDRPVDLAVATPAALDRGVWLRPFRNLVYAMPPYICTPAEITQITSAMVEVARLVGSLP

[5] = molecular target: T4, Mannose-6-phosphate isomerase (Homo sapiens, UniProt P34949); test: MPI inhibition at elevated mannose 6-phosphate – biochemical, fluorescence intensity, high mannose 6-phosphate, primary screen (AID 1220)
T4 sequence (P34949 whole entry): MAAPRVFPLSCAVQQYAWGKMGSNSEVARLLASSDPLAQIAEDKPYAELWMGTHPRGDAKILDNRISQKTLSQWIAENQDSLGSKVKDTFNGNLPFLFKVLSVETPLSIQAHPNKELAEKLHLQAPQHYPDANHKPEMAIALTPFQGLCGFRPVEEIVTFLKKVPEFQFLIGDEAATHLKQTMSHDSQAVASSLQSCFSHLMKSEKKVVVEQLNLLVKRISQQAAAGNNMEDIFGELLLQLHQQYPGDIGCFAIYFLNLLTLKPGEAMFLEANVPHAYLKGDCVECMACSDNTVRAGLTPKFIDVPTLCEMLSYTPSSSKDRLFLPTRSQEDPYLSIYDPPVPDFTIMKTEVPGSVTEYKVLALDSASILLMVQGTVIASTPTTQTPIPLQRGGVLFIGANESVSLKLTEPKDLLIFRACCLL

[6] = OVCAR-3 cell viability loss – plate reader, dry powder samples, PAX8 inhibitor project, dose response (AID 743044); format: functional, cell-based
Paired box protein Pax-8 = Paired box protein Pax-8 (Homo sapiens, UniProt Q06710); test: PAX8 transcriptional activity inhibition in RMG-I – RMG-I cells, luciferase, cherry-pick, dose response (AID 687027); format: functional, cell-based;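 further: luciferase reporter driven by Pax8 target thyroperoxidase promoter measured by SteadyGlo luminescence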
[7] = IGROV1 cell killing – plate reader, dry powder samples, PAX8 inhibitor project, dose response (AID 743043); format: functional, cell-based; conditions: IGROV-1
[8] = OVCAR8 cell viability loss – plate reader, dry powder samples, PAX8 project, dose response (AID 743197); format: functional, cell-based; conditions: OVCAR-8
[9] = molecular target: T5, Apoptotic protease-activating factor 1 (Homo sapiens, UniProt O14727); format: functional
T5 sequence (O14727 whole entry): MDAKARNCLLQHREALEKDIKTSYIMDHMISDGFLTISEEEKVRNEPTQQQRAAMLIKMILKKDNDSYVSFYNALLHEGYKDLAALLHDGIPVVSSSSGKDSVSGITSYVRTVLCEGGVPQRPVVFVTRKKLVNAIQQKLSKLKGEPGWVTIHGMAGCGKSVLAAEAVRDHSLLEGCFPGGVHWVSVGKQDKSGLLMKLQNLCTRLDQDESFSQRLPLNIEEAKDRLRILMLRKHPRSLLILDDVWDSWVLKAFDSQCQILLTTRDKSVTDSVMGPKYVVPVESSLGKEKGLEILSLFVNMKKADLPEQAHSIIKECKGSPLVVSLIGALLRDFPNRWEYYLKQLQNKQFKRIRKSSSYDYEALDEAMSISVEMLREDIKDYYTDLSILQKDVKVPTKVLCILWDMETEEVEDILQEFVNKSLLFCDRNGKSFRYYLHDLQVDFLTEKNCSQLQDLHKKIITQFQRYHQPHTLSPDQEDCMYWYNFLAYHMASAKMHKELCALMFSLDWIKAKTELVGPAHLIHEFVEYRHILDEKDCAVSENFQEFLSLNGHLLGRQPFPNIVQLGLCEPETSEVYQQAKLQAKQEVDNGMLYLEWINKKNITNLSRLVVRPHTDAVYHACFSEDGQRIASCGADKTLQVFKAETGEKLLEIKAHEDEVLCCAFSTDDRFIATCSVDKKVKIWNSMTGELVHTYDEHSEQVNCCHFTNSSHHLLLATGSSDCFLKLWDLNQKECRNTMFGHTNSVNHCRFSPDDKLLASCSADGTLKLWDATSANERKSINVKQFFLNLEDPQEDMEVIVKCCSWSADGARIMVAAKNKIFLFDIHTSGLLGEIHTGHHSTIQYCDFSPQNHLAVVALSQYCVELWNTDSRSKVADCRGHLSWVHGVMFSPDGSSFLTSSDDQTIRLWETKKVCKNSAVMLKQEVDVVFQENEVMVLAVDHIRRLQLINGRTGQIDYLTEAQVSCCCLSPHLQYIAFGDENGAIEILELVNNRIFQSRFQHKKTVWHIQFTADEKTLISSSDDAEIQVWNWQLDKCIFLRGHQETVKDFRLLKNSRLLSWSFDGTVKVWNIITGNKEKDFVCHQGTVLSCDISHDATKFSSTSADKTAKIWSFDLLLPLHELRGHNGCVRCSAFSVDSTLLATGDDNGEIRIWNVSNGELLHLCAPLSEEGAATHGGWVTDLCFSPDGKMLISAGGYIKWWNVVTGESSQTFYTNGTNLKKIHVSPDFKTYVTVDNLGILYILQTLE

Sequence of Paired box protein Pax-8 (Q06710 whole entry): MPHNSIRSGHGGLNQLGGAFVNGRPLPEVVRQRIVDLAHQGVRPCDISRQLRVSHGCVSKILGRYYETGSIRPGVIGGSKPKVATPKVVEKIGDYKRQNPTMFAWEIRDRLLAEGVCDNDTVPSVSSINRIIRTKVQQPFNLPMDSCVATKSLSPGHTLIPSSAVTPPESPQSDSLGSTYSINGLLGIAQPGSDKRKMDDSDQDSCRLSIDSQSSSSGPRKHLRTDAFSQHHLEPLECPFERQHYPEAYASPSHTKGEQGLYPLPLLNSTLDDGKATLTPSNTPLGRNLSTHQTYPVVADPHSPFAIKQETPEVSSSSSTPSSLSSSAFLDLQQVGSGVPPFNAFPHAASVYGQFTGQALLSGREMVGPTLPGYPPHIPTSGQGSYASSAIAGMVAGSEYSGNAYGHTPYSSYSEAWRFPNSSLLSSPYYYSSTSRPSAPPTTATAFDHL

| SMILES | EC50 [1] | IC50 [3] | AC50 [4] | further results |
| --- | --- | --- | --- | --- |
| Oc1c(Cl)cc(Cl)cc1/C=N\c1cc(C(F)(F)F)ccc1N1CCc2ccccc2C1 | > 67.5 µM (inactive) | > 67.5 µM (inactive) |  | EC50 (Streptococcus): 11.8 µM (active); EC50 [2]: 4.75 µM (active); EC50 (Streptokinase A): 47.7 µM (active) |
| CCOC(=O)/C(C#N)=C/c1cn(CCOc2ccccc2)c2ccccc12 | > 67.6 µM (inactive) | > 67.6 µM (inactive) |  |  |
| CCOC(=O)c1c(N)sc(C(N)=O)c1C |  |  | 5.1 µM (active) |  |
| Fc1ccc(-c2ccc3c(c2)C2CC3CCN2)cc1 (stereo not drawn) |  |  | 1.25 µM (active) |  |
| O=C(CCNc1ccc(Cc2ccncc2)cc1)c1ccc([N+](=O)[O-])cc1 | > 67.5 µM (inactive) | > 67.5 µM (inactive) |  | IC50 [5]: 15.8 µM (active) |
| OC[C@@H]1[C@H](c2ccc(-c3ccc(F)cc3)cc2)[C@@H]2CN(CCC(F)(F)F)CCCCN12 |  |  |  | AC50 [6]: 25.2 µM (active); AC50 (Paired box protein Pax-8): 34.9 µM (active); AC50 [7]: 30 µM (active); AC50 [8]: 47.5 µM (active) |
| Cc1ccc(-c2nnc(CSc3nnc(COc4cccc5ccccc45)n3-c3ccccc3)o2)cc1 |  |  |  | IC50 [9]: 6.83 µM (active) |
| O=C(c1ccc2c(c1)OCO2)N1CC[C@@H]2[C@H](CO)Nc3ccc(-c4ccc(F)cc4)cc3[C@@H]21 |  |  | 1.4 µM (active) |  |
